Laboratory results as given in patent US20110112149A1, “EPOTHILONE ANALOGUES, THEIR PHARMACEUTICAL COMPOSITIONS, THEIR USE AND THEIR PREPA RATIONS” (priority 2008, published 2011).
Like-named read-outs stand apart in the source and are kept apart here.

Experiments:
Format in all cases: cell-based
[1] = tested on: MCF-7 (Breast Cancer); experiment: SRB cytotoxicity assay, MCF-7; conditions: cells cultured 3 days with compound, read-out: Activity against cancer cell lines (IC50), MCF-7 (Breast Cancer)
Source text: (§1) The compounds of the present invention can be screened by conventional assays known in the art. For example, cytotoxicity of the compound can be determined according to SRB assay described in Skehan et. al., J. Natl. Cancer Inst. 1990, 82: 1107, which is incorporated herein by reference.
(§2) In the study, sulforhodamine B (SRB) was used for screening the selective compounds of the present invention according to their anti-tumor activity on four different tumor cell lines. In SRB assay, the cultured cells were trypsinized, then counted and diluted to a suitable concentration (5000-7500 cells/100 μl) with a culture medium. The cells were inoculated into a 96-well microtiter plate at 100 μl suspension/well. The test compounds were diluted in the culture medium to 2×1000 nM˜2×0.001 nM, and added to each well in 100 μl after 20 hours. The cells were then cultured for 3 days, fixed with 100 μl 10% trichloroacetic acid at 4° C. for 1 hour, and then stained with 0.2% SRB/1% acetic acid at room temperature for 20 min. The unbound dye was rinsed with 1% acetic acid. The bound dye was dissolved with 200 μl 10 mM Tris-base. The amount of the bound dye was calculated from OD value detected at wavelength of 515 nm. The amount of the bound dye was in direct proportion to the total amount of cell proteins. The data was analyzed with Kaleida Graph Program, and the half inhibitory concentration (IC50) was calculated. Epothilones D and B were detected in parallel for comparison. The results of the cytotoxic experiments on the tested selective compounds according to the present invention are shown as follows. The other compounds according to the present invention may also be detected with the similar method.

[2] = tested on: NCI/ADR-RES (MDR Breast Cancer); experiment: SRB cytotoxicity assay, NCI/ADR-RES; conditions: cells cultured 3 days with compound, read-out: Activity against cancer cell lines (IC50), NCI/ADR-RES (MDR Breast Cancer)
Source text: as §1, §2

[3] = tested on: SF-268 (Glioma); experiment: SRB cytotoxicity assay, SF-268; conditions: cells cultured 3 days with compound, read-out: Activity against cancer cell lines (IC50), SF-268 (Glioma)
Source text: as §1, §2

[4] = tested on: NCI-H460 (Lung Cancer); experiment: SRB cytotoxicity assay, NCI-H460; conditions: cells cultured 3 days with compound, read-out: Activity against cancer cell lines (IC50), NCI-H460 (Lung Cancer)
Source text: as §1, §2

[5] = Homo sapiens, NCI/ADR-RES, 72 h

Structure (SMILES) | IC50 [1] | IC50 [2] | IC50 [3] | IC50 [4] | IC50 ([1]; Homo sapiens, MCF7, 72 h) | IC50 [2, 5] | IC50 ([3]; Homo sapiens, SF-268, 72 h) | IC50 ([4]; Homo sapiens, NCI-H460, 72 h)
C/C(=C\c1csc(C)n1)[C@@H]1C[C@@H]2O[C@]2(C)CCC[C@H](C)[C@H](O)[C@@H](C)C(=O)C(C)(C)[C@@H](O)CC(=O)O1 [Epo B, Epothilone B, reference compound] | 0.5 nM | 5 nM | 0.8 nM | 0.7 nM | – | – | – | –
C/C1=C/C[C@@H](/C(C)=C/c2csc(C)n2)OC(=O)C[C@H](O)C(C)(C)C(=O)[C@H](C)[C@@H](O)[C@@H](C)CCC1 [Epo D, Epothilone D, reference compound] | 13 nM | 42 nM | 18 nM | 17 nM | – | – | – | –
C/C(=C\c1csc(C)n1)C(N)C1OC(=O)CC(O)C(C)(C)C(=O)C(C)C(O)C(C)CCCC2(C)OC12 (centres unmarked) [HH3] | – | – | – | – | 1 nM | 3 nM | 1 nM | 0.5 nM
C/C(=C\c1csc(C)n1)C1OC(=O)CC(O)C(C)(C)C(=O)C(C)C(O)C(C)CCCC2(C)OC12 (centres unmarked) [HH6] | – | – | – | – | 0.2 nM | 1 nM | 1 nM | 0.5 nM
Cc1nc2cc(C3OC(=O)CC(O)C(C)(C)C(=O)C(C)C(O)C(C)CCCC4(C)OC34)ccc2s1 (centres unmarked) [HH8] | – | – | – | – | 0.5 nM | 0.5 nM | 1 nM | 0.2 nM
